Among the data in patent publication US10800785B2, “Substituted pyrrolo[2,3-d]pyridazin-4-ones and pyrazolo[3,4-d]pyridazin-4-ones as protein kinase inhibitors” (Shanghai Fochon Pharmaceutical Co., Ltd., priority 2016, dated 2020) are IC50 values, retold here.

Each structure is given as a SMILES string.

By IC50 is commonly meant the concentration that inhibits the measured activity by half. Lower therefore signals inhibition by little substance.

For this experiment, the system named is DOHH2 cells. The experiment is described as follows: Cell proliferation assay (MTS) in DOHH2 cells, mechanism-based assay for BTK inhibition. The settings on record: Homo sapiens, DOHH-2, 120 h incubation, 5000 cells/well. A digest of the protocol: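 DOHH2 cells (5000/well) were plated in RPMI-1640 with 10% FBS, left overnight, then exposed 120 h at 37° C, 5% CO2 to compound at 1.5–10000 nM final (nine levels). Proliferation was read by MTS, incubated exactly 2 h and stopped with SDS, as a measure of cellular BTK inhibition.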
As for `C=CC(=O)N1CCC[C@H](c2nn(-c3ccc(Oc4ccccc4F)cc3)c3c(N)n[nH]c(=O)c23)C1` [Example 59, (S)-3-(1-acryloylpiperidin-3-yl)-7-amino-1-(4-(2-fluorophenoxy)phenyl)-1,5-dihydro-4H-pyrazolo [3,4-d]pyridazin-4-one], inhibition was half-maximal at 0.248 µM (IC50).

As for `C=CC(=O)N1CCC[C@H](c2nn(-c3ccc(Oc4cccc(F)c4F)cc3)c3c(N)n[nH]c(=O)c23)C1` [Example 62, (S)-3-(1-acryloylpiperidin-3-yl)-7-amino-1-(4-(2,3-difluorophenoxy)phenyl)-1,5-dihydro-4H-pyrazolo[3,4-d]pyridazin-4-one], the IC50 is 0.147 µM.

The compound `C=CC(=O)N1CCC[C@H](c2nn(-c3ccc(Oc4c(F)cccc4F)cc3)c3c(N)n[nH]c(=O)c23)C1` [Example 63, (S)-3-(1-acryloylpiperidin-3-yl)-7-amino-1-(4-(2,6-difluorophenoxy)phenyl)-1,5-dihydro-4H-pyrazolo[3,4-d]pyridazin-4-one] showed an IC50 of 0.189 µM.

`CC#CC(=O)N1CC[C@@H](c2nn(-c3ccc(Oc4ccccc4)cc3)c3c(N)n[nH]c(=O)c23)C1` [Example 65, (R)-7-amino-3-(1-(but-2-ynoyl)pyrrolidin-3-yl)-1-(4-phenoxyphenyl)-1,5-dihydro-4H-pyrazolo[3,4-d]pyridazin-4-one] returned an IC50 of 0.505 µM.

Consider `CC#CC(=O)N1CC[C@H](c2nn(-c3ccc(Oc4ccccc4)cc3)c3c(N)n[nH]c(=O)c23)C1` [Example 66, (S)-7-amino-3-(1-(but-2-ynoyl)pyrrolidin-3-yl)-1-(4-phenoxyphenyl)-1,5-dihydro-4H-pyrazolo [3,4-d]pyridazin-4-one], for which 0.242 µM corresponded to half-maximal inhibition (IC50).

`CC#CC(=O)N1CC[C@@H](c2cn(-c3ccc(Oc4ccccc4)cc3)c3c(N)n[nH]c(=O)c23)C1` [Example 67, (S)-7-amino-3-(1-(but-2-ynoyl)pyrrolidin-3-yl)-1-(4-phenoxyphenyl)-1,5-dihydro-4H-pyrrolo [2,3-d]pyridazin-4-one] showed an IC50 of 0.205 µM.

As to `CC#CC(=O)N1CC[C@H](c2cn(-c3ccc(Oc4ccccc4)cc3)c3c(N)n[nH]c(=O)c23)C1` [Example 68, (R)-7-amino-3-(1-(but-2-ynoyl)pyrrolidin-3-yl)-1-(4-phenoxyphenyl)-1,5-dihydro-4H-pyrrolo [2,3-d]pyridazin-4-one], the IC50 was found to be 0.146 µM.

In the case of `CC#CC(=O)N1CCC[C@@H](c2nn(-c3ccc(Oc4ccccc4)cc3)c3c(N)n[nH]c(=O)c23)C1` [Example 69, (R)-7-amino-3-(1-(but-2-ynoyl)piperidin-3-yl)-1-(4-phenoxyphenyl)-1,5-dihydro-4H-pyrazolo [3,4-d]pyridazin-4-one], inhibition was half-maximal at 0.863 µM (IC50).

The compound `CC#CC(=O)N1CCC[C@@H](c2cn(-c3ccc(Oc4ccccc4)cc3)c3c(N)n[nH]c(=O)c23)C1` [Example 71, (S)-7-amino-3-(1-(but-2-ynoyl)piperidin-3-yl)-1-(4-phenoxyphenyl)-1,5-dihydro-4H-pyrrolo[2,3-d]pyridazin-4-one] had an IC50 of 0.228 µM.

On to `CC#CC(=O)N1CCC[C@H](c2cn(-c3ccc(Oc4ccccc4)cc3)c3c(N)n[nH]c(=O)c23)C1` [Example 72, (R)-7-amino-3-(1-(but-2-ynoyl)piperidin-3-yl)-1-(4-phenoxyphenyl)-1,5-dihydro-4H-pyrrolo[2,3-d]pyridazin-4-one], for which the IC50 turned out to be 0.26 µM.

On to `CC#CC(=O)N1CC[C@@H](c2nn(-c3ccc(Oc4ccccc4F)cc3)c3c(N)n[nH]c(=O)c23)C1` [Example 73, (R)-7-amino-3-(1-(but-2-ynoyl)pyrrolidin-3-yl)-1-(4-(2-fluorophenoxy)phenyl)-1,5-dihydro-4H-pyrazolo[3,4-d]pyridazin-4-one], for which inhibition was half-maximal at 0.44 µM (IC50).

Compound `CC#CC(=O)N1CC[C@H](c2nn(-c3ccc(Oc4ccccc4F)cc3)c3c(N)n[nH]c(=O)c23)C1` [Example 74, (S)-7-amino-3-(1-(but-2-ynoyl)pyrrolidin-3-yl)-1-(4-(2-fluorophenoxy)phenyl)-1,5-dihydro-4H-pyrazolo[3,4-d]pyridazin-4-one] had an IC50 of 0.393 µM.

Consider `CC#CC(=O)N1CC[C@@H](c2cn(-c3ccc(Oc4ccccc4F)cc3)c3c(N)n[nH]c(=O)c23)C1` [Example 75, (S)-7-amino-3-(1-(but-2-ynoyl)pyrrolidin-3-yl)-1-(4-(2-fluorophenoxy)phenyl)-1,5-dihydro-4H-pyrrolo[2,3-d]pyridazin-4-one], for which half-maximal inhibition (IC50) required 0.383 µM.

For the compound `CC#CC(=O)N1CC[C@H](c2cn(-c3ccc(Oc4ccccc4F)cc3)c3c(N)n[nH]c(=O)c23)C1` [Example 76, (R)-7-amino-3-(1-(but-2-ynoyl)pyrrolidin-3-yl)-1-(4-(2-fluorophenoxy)phenyl)-1,5-dihydro-4H-pyrrolo[2,3-d]pyridazin-4-one], it took 0.124 µM to reach half-maximal inhibition (IC50).

Compound `CC#CC(=O)N1CCC[C@@H](c2nn(-c3ccc(Oc4ccccc4F)cc3)c3c(N)n[nH]c(=O)c23)C1` [Example 77, (R)-7-amino-3-(1-(but-2-ynoyl)piperidin-3-yl)-1-(4-(2-fluorophenoxy)phenyl)-1,5-dihydro-4H-pyrazolo[3,4-d]pyridazin-4-one] gave an IC50 of 0.666 µM.

The compound `CC#CC(=O)N1CCC[C@@H](c2cn(-c3ccc(Oc4ccccc4F)cc3)c3c(N)n[nH]c(=O)c23)C1` [Example 79, (S)-7-amino-3-(1-(but-2-ynoyl)piperidin-3-yl)-1-(4-(2-fluorophenoxy)phenyl)-1,5-dihydro-4H-pyrrolo[2,3-d]pyridazin-4-one] returned an IC50 of 0.164 µM.

In turn, `CC#CC(=O)N1CCC[C@H](c2cn(-c3ccc(Oc4ccccc4F)cc3)c3c(N)n[nH]c(=O)c23)C1` [Example 80, (R)-7-amino-3-(1-(but-2-ynoyl)piperidin-3-yl)-1-(4-(2-fluorophenoxy)phenyl)-1,5-dihydro-4H-pyrrolo[2,3-d]pyridazin-4-one] registered an IC50 of 0.45 µM.

Turning to `CC#CC(=O)N1CC[C@H](c2nn(-c3ccc(Oc4c(F)cccc4F)cc3)c3c(N)n[nH]c(=O)c23)C1` [Example 82, (S)-7-amino-3-(1-(but-2-ynoyl)pyrrolidin-3-yl)-1-(4-(2,6-difluorophenoxy)phenyl)-1,5-dihydro-4H-pyrazolo[3,4-d]pyridazin-4-one], the IC50 is 0.687 µM.

In turn, `CC#CC(=O)N1CC[C@@H](c2cn(-c3ccc(Oc4c(F)cccc4F)cc3)c3c(N)n[nH]c(=O)c23)C1` [Example 83, (S)-7-amino-3-(1-(but-2-ynoyl)pyrrolidin-3-yl)-1-(4-(2,6-difluorophenoxy)phenyl)-1,5-dihydro-4H-pyrrolo[2,3-d]pyridazin-4-one] returned an IC50 of 0.456 µM.

Turning to `CC#CC(=O)N1CC[C@H](c2cn(-c3ccc(Oc4c(F)cccc4F)cc3)c3c(N)n[nH]c(=O)c23)C1` [Example 84, (R)-7-amino-3-(1-(but-2-ynoyl)pyrrolidin-3-yl)-1-(4-(2,6-difluorophenoxy)phenyl)-1,5-dihydro-4H-pyrrolo[2,3-d]pyridazin-4-one], the IC50 amounted to 0.369 µM.

For the compound `CC#CC(=O)N1CCC[C@@H](c2nn(-c3ccc(Oc4c(F)cccc4F)cc3)c3c(N)n[nH]c(=O)c23)C1` [Example 85, (R)-7-amino-3-(1-(but-2-ynoyl)piperidin-3-yl)-1-(4-(2,6-difluorophenoxy)phenyl)-1,5-dihydro-4H-pyrazolo[3,4-d]pyridazin-4-one], the IC50 worked out at 0.435 µM.

`CC#CC(=O)N1CCC[C@@H](c2cn(-c3ccc(Oc4c(F)cccc4F)cc3)c3c(N)n[nH]c(=O)c23)C1` [Example 87, (S)-7-amino-3-(1-(but-2-ynoyl)piperidin-3-yl)-1-(4-(2,6-difluorophenoxy)phenyl)-1,5-dihydro-4H-pyrrolo[2,3-d]pyridazin-4-one] yielded an IC50 of 0.265 µM.

On to `CC#CC(=O)N1CCC[C@H](c2cn(-c3ccc(Oc4c(F)cccc4F)cc3)c3c(N)n[nH]c(=O)c23)C1` [Example 88, (R)-7-amino-3-(1-(but-2-ynoyl)piperidin-3-yl)-1-(4-(2,6-difluorophenoxy)phenyl)-1,5-dihydro-4H-pyrrolo[2,3-d]pyridazin-4-one], for which half-maximal inhibition (IC50) was put at 0.432 µM.

`C=CC(=O)N1CC[C@@H](c2nn(-c3ccc(C(=O)Nc4ccccn4)cc3)c3c(N)n[nH]c(=O)c23)C1` [Example 90, (R)-4-(3-(1-acryloylpyrrolidin-3-yl)-7-amino-4-oxo-4,5-dihydro-1H-pyrazolo[3,4-d]pyridazin-1-yl)-N-(pyridin-2-yl)benzamide] displayed an IC50 of 0.58 µM.

In turn, `COC/C=C/C(=O)N1CC[C@@H](c2cn(-c3ccc(Oc4ccccc4)cc3)c3c(N)n[nH]c(=O)c23)C1` [Example 91, (S,E)-7-amino-3-(1-(4-methoxybut-2-enoyl)pyrrolidin-3-yl)-1-(4-phenoxyphenyl)-1,5-dihydro-4H-pyrrolo[2,3-d]pyridazin-4-one] had an IC50 of 0.64 µM.

`COC/C=C/C(=O)N1CC[C@@H](c2cn(-c3ccc(Oc4ccccc4F)cc3)c3c(N)n[nH]c(=O)c23)C1` [Example 92, (S,E)-amino-1-(4-(2-fluorophenoxy)phenyl)-3-(1-(4-methoxybut-2-enoyl)pyrrolidin-3-yl)-1,5-dihydro-4H-pyrrolo[2,3-d]pyridazin-4-one] displayed an IC50 of 0.649 µM.

Consider `CN(C)C/C=C/C(=O)N1CC[C@@H](c2cn(-c3ccc(Oc4ccccc4)cc3)c3c(N)n[nH]c(=O)c23)C1` [Example 93, (S,E)-7-amino-3-(1-(4-(dimethylamino)but-2-enoyl)pyrrolidin-3-yl)-1-(4-phenoxyphenyl)-1,5-dihydro-4H-pyrrolo[2,3-d]pyridazin-4-one], for which the IC50 came out at 0.239 µM.

For `CN(C)C/C=C/C(=O)N1CC[C@@H](c2cn(-c3ccc(Oc4ccccc4F)cc3)c3c(N)n[nH]c(=O)c23)C1` [Example 94, (S,E)-7-amino-3-(1-(4-(dimethylamino)but-2-enoyl)pyrrolidin-3-yl)-1-(4-(2-fluorophenoxy)phenyl)-1,5-dihydro-4H-pyrrolo[2,3-d]pyridazin-4-one], the IC50 was found to be 0.247 µM.
